The molecules below were run against PKM2 (Homo sapiens, UniProt P14618) (assay: PKM2 Assay Procedure (LDH/NADH-coupled, absorbance at 340 nm)). Conditions: Table 1; PKM2 activation.
Assay type: biochemical
Procedure: B refers to an activator of PKM2 with an AC50 between 100 nM and 500 nM. C refers to an activator of PKM2 with an AC50 greater than 500 nM. AC50s described here in Tables 1 and 2 and FIGS. 1 and 2A-2D are measured according to the “PKM2 Assay Procedure” below.
• PKM2 stock enzyme solution was diluted in Reaction Buffer • 2 μL of compound was added into each well first, and then 180 μL of the Reaction Mix was added. • Reaction mixture with compound (without ADP) were incubated for 30 minutes at 4° C. • Plates were re-equilibrated to room temperature prior to adding 20 μL ADP to initiate the reaction. • Reaction progress was measured as changes in absorbance at 340 nm wavelength at room temperature (25° C.)

Sequence of PKM2 (P14618 whole entry): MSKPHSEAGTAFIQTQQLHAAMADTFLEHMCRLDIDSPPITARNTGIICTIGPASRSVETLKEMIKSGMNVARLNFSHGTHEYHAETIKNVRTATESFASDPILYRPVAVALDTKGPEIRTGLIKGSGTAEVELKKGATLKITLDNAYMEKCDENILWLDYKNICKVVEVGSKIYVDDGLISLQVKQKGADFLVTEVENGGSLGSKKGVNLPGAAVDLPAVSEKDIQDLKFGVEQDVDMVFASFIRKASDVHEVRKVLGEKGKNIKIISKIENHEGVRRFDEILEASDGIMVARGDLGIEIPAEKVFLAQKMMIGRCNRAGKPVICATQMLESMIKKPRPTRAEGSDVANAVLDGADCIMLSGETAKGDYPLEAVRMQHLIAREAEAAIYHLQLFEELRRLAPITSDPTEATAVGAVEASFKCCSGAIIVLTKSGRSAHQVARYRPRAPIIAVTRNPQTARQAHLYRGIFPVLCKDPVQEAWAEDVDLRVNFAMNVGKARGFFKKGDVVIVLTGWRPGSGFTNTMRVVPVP

SMILES | AC50 [nM]
O=S(=O)(Nc1ccc2c(c1)OCCO2)c1cncn1-c1ccc(C(F)(F)F)cn1 | > 500
O=S(=O)(Nc1ccc(F)cc1)c1cncn1-c1ccc(C(F)(F)F)cn1 | > 500
O=S(=O)(Nc1ccc(F)c(Cl)c1)c1cncn1-c1cnccn1 | < 100
O=C(c1ccc(NS(=O)(=O)c2cccc3cccnc23)cc1)N1CCN(Cc2ccc(Cl)nc2)CC1 | < 100
N#Cc1ccccc1CN1CCN(C(=O)c2ccc(NS(=O)(=O)c3cccc4cccnc34)cc2)CC1 | < 100
COc1ccccc1N1CCN(C(=O)c2ccc(NS(=O)(=O)c3ccc4c(c3)OCCO4)cc2)CC1 | 100 to 500
Cc1cc2oc(=O)n(C)c2cc1S(=O)(=O)Nc1cc(F)cc(Cl)c1 | > 500
O=S(=O)(Nc1ccc2c(c1)OCO2)c1cccn1-c1ncc(C(F)(F)F)cc1Cl | < 100
COc1ccccc1N1CCN(C(=O)c2ccc(NS(=O)(=O)c3cccc4cccnc34)nc2)CC1 | < 100
Cc1cccc(NS(=O)(=O)c2cncn2-c2ncc(C(F)(F)F)cc2Cl)c1 | < 100
Nc1cccc(S(=O)(=O)N2CCCN(S(=O)(=O)c3cccc4c3OCCO4)CC2)c1 | < 100
CC(=O)c1ccccc1CN1CCN(C(=O)c2ccc(NS(=O)(=O)c3cccc4cccnc34)cc2)CC1 | < 100
O=S(=O)(Nc1cc(F)cc(F)c1)c1cccn1-c1ncc(C(F)(F)F)cc1Cl | > 500
O=C(c1ccc(NS(=O)(=O)c2cccc3cccnc23)cc1)N1CCN(Cc2ccccc2)CC1 | < 100
N#Cc1cccc(CN2CCN(C(=O)c3ccc(NS(=O)(=O)c4cccc5cccnc45)cc3)CC2)c1 | < 100
Cc1cc(C)cc(NS(=O)(=O)c2ccnn2-c2ncc(C(F)(F)F)cc2Cl)c1 | < 100
O=C(COc1ccc(-n2cnnn2)cc1)N1CCN(S(=O)(=O)c2ccc3ccccc3c2)CC1 | 100 to 500
O=C(c1ccc(NS(=O)(=O)c2cccc3cccnc23)cc1)N1CCN(Cc2ccc(F)cc2)CC1 | < 100
O=C(c1ccc(NS(=O)(=O)c2cccc3cccnc23)cc1)N1CCN(Cc2ccc(Cl)cc2)CC1 | < 100
COc1ccccc1N1CCCN(C(=O)c2ccc(NS(=O)(=O)c3cccc4cccnc34)cc2)CC1 | > 500
Cc1cc(C)cc(NS(=O)(=O)c2cncn2-c2ncc(C(F)(F)F)cc2Cl)c1 | < 100
COc1ccccc1CN1CCN(C(=O)c2ccc(NS(=O)(=O)c3cccc4cccnc34)cc2)CC1 | < 100
COc1ccccc1N1CCN(C(=O)c2ccc(N(C)S(=O)(=O)c3cccc4cccnc34)cc2)CC1 | < 100
CC(=O)c1ccc(CN2CCN(C(=O)c3ccc(NS(=O)(=O)c4cccc5cccnc45)cc3)CC2)cc1 | 100 to 500
O=S(=O)(Nc1ccccc1C(F)(F)F)c1cccn1-c1ncc(C(F)(F)F)cc1Cl | > 500
O=S(=O)(Nc1ccc(Cl)cc1)c1cccn1-c1ncc(C(F)(F)F)cc1Cl | < 100
Cc1cc(C)cc(NS(=O)(=O)c2ccc3c(c2)oc(=O)n3C)c1 | < 100
O=C(c1ccc(NS(=O)(=O)c2cccc3cccnc23)cc1)N1CCN(c2ccccc2)CC1 | < 100

The next lines start with the values.

AC50 [nM] | SMILES
< 100 | COc1cccc(CN2CCN(C(=O)c3ccc(NS(=O)(=O)c4cccc5cccnc45)cc3)CC2)c1
< 100 | Cn1c(=O)oc2cc(S(=O)(=O)Nc3cccc(Cl)c3)ccc21
> 500 | COc1ccccc1N1CCN(C(=O)c2ccc(NS(=O)(=O)c3ccc4ccccc4c3)cc2)CC1
< 100 | Cc1cc2oc(=O)n(C)c2cc1S(=O)(=O)Nc1ccc(F)c(Cl)c1
< 100 | O=C(c1ccc(NS(=O)(=O)c2cccc3cccnc23)cc1)N1CCN(Cc2cccnc2Cl)CC1
< 100 | COc1ccccc1N1CCN(C(=O)c2ccc(NS(=O)(=O)c3cccc4cccnc34)cc2)CC1
> 500 | O=C(c1ccc(NS(=O)(=O)c2ccc(Cl)cc2)cc1)N1CCN(c2ncccn2)CC1
< 100 | Cc1cc2c(s1)c1cnn(Cc3ccccc3F)c(=O)c1n2C
< 100 | Cc1cc(C)cc(NS(=O)(=O)c2cccn2-c2ncc(C(F)(F)F)cc2Cl)c1
100 to 500 | Cc1cc2oc(=O)n(C)c2cc1S(=O)(=O)Nc1cccc(Cl)c1
< 100 | O=C(c1ccc(NS(=O)(=O)c2cccc3cccnc23)cc1)N1CCN(Cc2ccccn2)CC1
100 to 500 | Cc1cc(NS(=O)(=O)c2cnn(-c3cnccn3)c2)ccc1F
< 100 | Cc1cc(NS(=O)(=O)c2cccn2-c2ncc(C(F)(F)F)cc2Cl)ccc1F
< 100 | O=C(c1ccc(NS(=O)(=O)c2cccc3cccnc23)cc1)N1CCN(Cc2ccc(Br)cc2)CC1
> 500 | COc1ccccc1N1CCN(C(=O)c2ccc(NS(=O)(=O)c3ccc(Cl)c4nonc34)cc2)CC1
< 100 | O=S(=O)(c1ccc2c(c1)OCCO2)N1CCN(S(=O)(=O)c2c(F)cccc2F)CC1
< 100 | O=C(c1ccc(NS(=O)(=O)c2cccc3cccnc23)cc1)N1CCN(Cc2cccc(Cl)c2)CC1
< 100 | N#Cc1ccc(CN2CCN(C(=O)c3ccc(NS(=O)(=O)c4cccc5cccnc45)cc3)CC2)cc1
< 100 | Cc1cc(C)cc(NS(=O)(=O)c2cccn2-c2ncccn2)c1
< 100 | O=C(c1ccc(NS(=O)(=O)c2cccc3cccnc23)cc1)N1CCN(Cc2ccccc2Cl)CC1
100 to 500 | O=C(c1ccc(NS(=O)(=O)c2cccc3cccnc23)cc1)N1CCN(c2ncccn2)CC1
> 500 | O=S(=O)(Nc1ccc(Cl)cc1)c1cncn1-c1cnccn1

Same assay, conditions: Table 2; PKM2 activation

SMILES | AC50 [nM]
COc1ccc(Cl)cc1S(=O)(=O)Nc1ccc2oc(=O)n(C)c2c1 [drawing 91] | < 1000
Cn1c(=O)oc2cc(NS(=O)(=O)c3cccs3)ccc21 | 10000 to 50000
COc1ccc(Cl)cc1S(=O)(=O)Nc1ccc2sc(=O)n(C)c2c1 | 1000 to 10000

Continued, values first:

AC50 [nM] | SMILES
> 100000 | COc1ccc(Cl)cc1S(=O)(=O)Nc1ccc2oc(=O)n(C)c2c1 [drawing 74]
1000 to 10000 | Cc1ccc(OCC(=O)N2CCN(S(=O)(=O)c3cc4oc(=O)n(C)c4cc3C)CC2)cc1

The molecules below were run on A549 cells (assay: Growth inhibition (GI50) side-by-side in regular RPMI versus BME medium). Conditions: A549 cells treated for 72 hours.
Assay type: cell-based
Procedure: FIGS. 9A-9F are graphs depicting the effect of various cytotoxic agents on A549 cell growth in BME.
Cells grown in BME media are not generally more sensitive to cytotoxic agents (FIGS. 9A-9F). A549 cells were grown in RPMI (FIG. 9A, 9B or 9C) or in BME (FIGS. 9D, 9E, and 9F). […] The effect of the PKM2 activators appears to by cytostatic (no induction of apoptosis).

SMILES | potency of cytotoxic agent in BME compared with RPMI
CC[C@]1(O)C[C@@H]2CN(CCc3c([nH]c4ccccc34)[C@@](C(=O)OC)(c3cc4c(cc3OC)N(C)[C@H]3[C@@](O)(C(=O)OC)[C@H](OC(C)=O)[C@]5(CC)C=CCN6CC[C@]43[C@@H]65)C2)C1 [vinblastine] | decreased potency
CC(=O)O[C@@]12CO[C@@H]1C[C@H](O)[C@@]1(C)C(=O)[C@H](O)C3=C(C)[C@@H](OC(=O)[C@H](O)[C@@H](NC(=O)OC(C)(C)C)c4ccccc4)C[C@@](O)([C@@H](OC(=O)c4ccccc4)[C@H]21)C3(C)C [docetaxel] | decreased potency
COc1cccc2c1C(=O)c1c(O)c3c(c(O)c1C2=O)C[C@@](O)(C(=O)CO)C[C@@H]3O[C@H]1C[C@H](N)[C@H](O)[C@H](C)O1 [doxorubicin] | decreased potency

Reference: patent publication US20170007608A1, “ACTIVATORS OF PYRUVATE KINASE M2 AND METHODS OF TREATING DISEASE” (AGIOS PHARMACEUTICALS, INC, priority 2011, published 2017)
